In patent US12459890B2, “Salt and crystal form of compound having agonistic activity to S1P5 receptor” (ONO PHARMACEUTICAL CO., LTD., priority 2019, dated 2025):

Assays:
[1] = biological target: human S1P1 (EDG-1) (Homo sapiens, UniProt P21453); assay: S1P receptor agonist activity by monitoring intracellular calcium concentration (S1P1); type: cell-based; conditions: CHO cells overexpressing human S1P1, intracellular calcium, S1P = 100%
Method: (§1) Chinese hamster ovary (CHO) cells in which human S1P1 (EDG-1) or human S1P5 (EDG-8) genes were overexpressed were cultured in Ham's F-12 medium containing 10% FBS (fetal bovine serum), penicillin/streptomycin, and geneticin (0.25 mg/mL). The medium was changed one day before the calcium assay was performed and on the day of the assay. Four hours after medium exchange, medium was removed and washed once with phosphate buffered saline. 0.05% Trypsin EDTA was added thereto to exfoliate the cells, and then a medium was added to recover the cells. The collected cell suspension was centrifuged to remove the supernatant, and suspended in phosphate buffered saline to count the number of cells. The cells were suspended in a Hanks solution containing Calcium 6 Assay Reagent (manufactured by Molecular Devices), 20 mM HEPES and 2.5 mM Probenecid so as to be 1.1×10^6 cells/mL, and incubated at 37° C. for about 1 hour. Thereafter, the supernatant was removed by centrifugation, and the cells were suspended in a Hanks solution containing 20 mM HEPES, 2.5 mM Probenecid and 0.1% BSA so as to be 2.2×10^6 cells/mL. The suspension was seeded in a 96 well plate at 80 μL/well. A plate was set in a fluorescent drug screening system (FDSS6000), Compound I or a comparative compound, and S1P were sequentially added, and an increase in intracellular calcium concentration before and after addition was measured at an excitation wavelength of 480 nm and a fluorescence wavelength of 540 nm. The increase in intracellular calcium concentration was evaluated by signal intensity at a fluorescence wavelength, and the agonist activity of each compound was calculated with the signal intensity when S1P was added instead of the compound as 100% activity.

[2] = biological target: human S1P5 (EDG-8) (Homo sapiens, UniProt Q9H228); assay: S1P receptor agonist activity by monitoring intracellular calcium concentration (S1P5); type: cell-based; conditions: for S1P5 receptor agonist activity: CHO cells overexpressing human S1P5, intracellular calcium, S1P = 100%; for balance of S1P5 receptor agonist activity with respect to S1P1 receptor (selectivity): comparison of agonist activities on S1P1 and S1P5
Method: as §1

[3] = Measurement of clearance in rats; type: in vivo, rat; conditions: male SD rats, fasted, tail-intravenous administration, plasma
Method: A solution of Compound I was tail-intravenously administered to male SD rats under fasted conditions. After administration, rats were retained by a manual method at regular time intervals, and blood was collected from the jugular vein with sodium heparin.
The blood was centrifuged at 10,000 g, 3 min, 4° C. to obtain plasma. Concentration of Compound I in the plasma was measured by LC/MS/MS. Clearance was calculated from the plasma concentration transition using pharmacokinetic analysis software Phoenix WinNonlin (Certara USA, Inc.).

[4] = tested on: mouse experimental autoimmune encephalomyelitis model; assay: Effectiveness in mouse experimental autoimmune encephalomyelitis model; type: in vivo; conditions: female C57BL/J mice, MOG35-55 immunization, oral once a day for 30 days
Method: Female C57BL/J mice (Charles River Laboratories Japan, Inc., age at start of experiment: 7 or 8 weeks of age) were used. Myelin Oligodendrocyte Glycoprotein [sequence 35-55 […] (AnaSpec, Inc., hereinafter MOG35-55)] was dissolved in physiological saline (Otsuka Pharmaceutical Factory, Inc.) to prepare a 2 mg/mL solution. The 2 mg/mL solution of MOG35-55 and an equal amount of FCA H37Ra (Difco Laboratories) were mixed to prepare an emulsion, and the emulsion was used as an inducing agent. Immunization was performed by subcutaneously administering 0.2 mL of the inducing agent into the mouse flank using a glass syringe equipped with a 26G injection needle. […]
After dividing into groups, administration of a test substance (Compound I), a positive control compound (FTY720; fingolimod), or a vehicle (water for injection) was started on the same day, and each test substance was repetitively orally administered once a day for 30 days from the day before the immunization to day 28 of immunization. The amount of the solution to be administered was calculated based on the individual body weight on the day of administration. […]

[5] = Chemical stability test (residual rate by HPLC after storage); type: physicochemical; conditions: vs sample stored at −20° C.
Method: Stability of the salts and/or crystal forms of the present invention was studied under the storage conditions of Condition 1 or Condition 2. After storage, the residual rate (%) of the stored sample under each condition was calculated by HPLC based on the area percentage of the sample stored at −20° C.
• Condition 1 60° C.: 1 month: pulverized • Condition 2 80° C.: 1 week: unpulverized
Comparison object of each sample was stored at −20° C.

[6] = Condition 1: 60° C.: 1 month: pulverized
[7] = Condition 2: 80° C.: 1 week: unpulverized

Chain of human S1P1 (EDG-1) (P21453 whole entry): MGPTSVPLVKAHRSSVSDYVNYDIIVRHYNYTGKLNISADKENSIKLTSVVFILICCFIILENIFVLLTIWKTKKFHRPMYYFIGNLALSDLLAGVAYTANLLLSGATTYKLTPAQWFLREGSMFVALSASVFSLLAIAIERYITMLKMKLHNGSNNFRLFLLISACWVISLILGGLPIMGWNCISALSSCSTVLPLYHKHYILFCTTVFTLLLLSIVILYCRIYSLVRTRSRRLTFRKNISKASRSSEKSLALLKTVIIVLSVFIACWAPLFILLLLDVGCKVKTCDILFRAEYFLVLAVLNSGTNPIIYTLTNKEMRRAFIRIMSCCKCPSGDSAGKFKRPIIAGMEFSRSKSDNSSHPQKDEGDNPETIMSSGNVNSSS
Chain of human S1P5 (EDG-8) (Q9H228 whole entry): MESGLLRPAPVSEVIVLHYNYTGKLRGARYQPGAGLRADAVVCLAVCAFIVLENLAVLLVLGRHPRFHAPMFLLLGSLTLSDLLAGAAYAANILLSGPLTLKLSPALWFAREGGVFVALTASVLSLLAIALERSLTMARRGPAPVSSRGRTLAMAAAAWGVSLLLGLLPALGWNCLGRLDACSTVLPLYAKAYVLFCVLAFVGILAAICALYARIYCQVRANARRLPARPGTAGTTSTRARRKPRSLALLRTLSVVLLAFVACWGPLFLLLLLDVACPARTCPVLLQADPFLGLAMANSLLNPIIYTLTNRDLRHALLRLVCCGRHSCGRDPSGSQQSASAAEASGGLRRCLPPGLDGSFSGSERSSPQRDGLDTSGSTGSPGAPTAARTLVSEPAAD

SMILES	Residual rate (%) [5, 6]	Residual rate (%) [5, 7]	also measured
CCCCCCCCOc1ccc2c(c1)CCC(CN1CC(C(=O)O)C1)=C2C.Cl [Comparative Compound A, 1-{[1-methyl-6-(octyloxy)-3,4-dihydro-2-naphthalenyl]methyl}-3-azetidine carboxylic acid hydrochloride]			S1P1 receptor agonist activity [1]: had both S1P1 and S1P5 receptor agonist activities; S1P5 receptor agonist activity [2]: had both S1P1 and S1P5 receptor agonist activities; balance of S1P5 receptor agonist activity with respect to S1P1 receptor (selectivity) [2]: S1P1 receptor agonist activity being stronger than S1P5 receptor agonist activity
CCCc1ccc(COc2ccc3c(c2)CCC(CN2CC(C(=O)O)C2)=C3C)c(OC)c1 [Comparative Compound B, 1-({6-[(2-methoxy-4-propylbenzyl)oxy]-1-methyl-3,4-dihydro-2-naphthalenyl}methyl)-3-azetidine carboxylic acid]			S1P1 receptor agonist activity [1]: had both S1P1 and S1P5 receptor agonist activities; S1P5 receptor agonist activity [2]: had both S1P1 and S1P5 receptor agonist activities; balance of S1P5 receptor agonist activity with respect to S1P1 receptor (selectivity) [2]: S1P1 receptor agonist activity being stronger than S1P5 receptor agonist activity
COc1ccc2c(c1)C[C@H](C)C(CN1CC(F)(C(=O)O)C1)=C2 [Comparative Example, (S)-3-Fluoro-1-[(6-methoxy-3-methyl-3,4-dihydronaphthalen-2-yl)methyl]azetidine-3-carboxylic acid]			S1P1 receptor agonist activity [1]: did not have S1P1 and S1P5 receptor agonist activities; S1P5 receptor agonist activity [2]: did not have S1P1 and S1P5 receptor agonist activities
C[C@H]1Cc2cc(OCCCC(F)(F)F)ccc2C=C1CN1CC(C(=O)O)C1 [Compound I, 1-[[(3S)-3-Methyl-6-(4,4,4-trifluorobutoxy)-3,4-dihydronaphthalen-2-yl]methyl]azetidine-3-carboxylic acid]			balance of S1P5 receptor agonist activity with respect to S1P1 receptor (selectivity) [2]: selective agonist activity on the S1P5 receptor; Clearance [3]: low clearance; effectiveness in EAE model (neurological symptom score) [4]: shows effectiveness
C[C@H]1Cc2cc(OCCCC(F)(F)F)ccc2C=C1CN1CC(C(=O)O)C1 [Example 7, 1-[[(3S)-3-methyl-6-(4,4,4-trifluorobutoxy)-3,4-dihydronaphthalen-2-yl]methyl]azetidine-3-carboxylic acid]	99.1%		
C[C@H]1Cc2cc(OCCCC(F)(F)F)ccc2C=C1CN1CC(C(=O)O)C1.O [Example 8, hydrate of 1-[[(3S)-3-methyl-6-(4,4,4-trifluorobutoxy)-3,4-dihydronaphthalen-2-yl]methyl]azetidine-3-carboxylic acid]	97.8%		
C[C@H]1Cc2cc(OCCCC(F)(F)F)ccc2C=C1CN1CC(C(=O)O)C1.O=C(O)c1ccccc1 [Example 9, monobenzoate of 1-[[(3S)-3-methyl-6-(4,4,4-trifluorobutoxy)-3,4-dihydronaphthalen-2-yl]methyl]azetidine-3-carboxylic acid]	97.9%		
C[C@H]1Cc2cc(OCCCC(F)(F)F)ccc2C=C1CN1CC(C(=O)O)C1.O=C(O)c1ccc(O)cc1 [Example 10, mono(4-hydroxybenzoate) of 1-[[(3S)-3-methyl-6-(4,4,4-trifluorobutoxy)-3,4-dihydronaphthalen-2-yl]methyl]azetidine-3-carboxylic acid]	99.4%	99.6%	
C[C@H]1Cc2cc(OCCCC(F)(F)F)ccc2C=C1CN1CC(C(=O)O)C1.O.O=C(O)c1ccc(O)cc1 [Example 12, hydrate of mono(4-hydroxybenzoate) of 1-[[(3S)-3-methyl-6-(4,4,4-trifluorobutoxy)-3,4-dihydronaphthalen-2-yl]methyl]azetidine-3-carboxylic acid]	95.3%		
C[C@H]1Cc2cc(OCCCC(F)(F)F)ccc2C=C1CN1CC(C(=O)O)C1.C[C@H]1Cc2cc(OCCCC(F)(F)F)ccc2C=C1CN1CC(C(=O)O)C1.O=S(=O)(O)O [Example 13, hemisulfate of 1-[[(3S)-3-methyl-6-(4,4,4-trifluorobutoxy)-3,4-dihydronaphthalen-2-yl]methyl]azetidine-3-carboxylic acid]	97.1%		
C[C@H]1Cc2cc(OCCCC(F)(F)F)ccc2C=C1CN1CC(C(=O)O)C1.N[C@@H](Cc1c[nH]c2ccccc12)C(=O)O [Example 14, mono-tryptophan salt of 1-[[(3S)-3-methyl-6-(4,4,4-trifluorobutoxy)-3,4-dihydronaphthalen-2-yl]methyl]azetidine-3-carboxylic acid]	99.1%	99.6%	
C[C@H]1Cc2cc(OCCCC(F)(F)F)ccc2C=C1CN1CC(C(=O)O)C1.C[C@H]1Cc2cc(OCCCC(F)(F)F)ccc2C=C1CN1CC(C(=O)O)C1.O=C(O)CCC(=O)O [Example 15, hemisuccinate of 1-[[(3S)-3-methyl-6-(4,4,4-trifluorobutoxy)-3,4-dihydronaphthalen-2-yl]methyl]azetidine-3-carboxylic acid]		99.1%	
C[C@H]1Cc2cc(OCCCC(F)(F)F)ccc2C=C1CN1CC(C(=O)O)C1.C[C@H]1Cc2cc(OCCCC(F)(F)F)ccc2C=C1CN1CC(C(=O)O)C1.O=C(O)CCCCC(=O)O [Example 16, hemiadipate of 1-[[(3S)-3-methyl-6-(4,4,4-trifluorobutoxy)-3,4-dihydronaphthalen-2-yl]methyl]azetidine-3-carboxylic acid]		95.8%	
